# Data taken from paper PMC9738927, “A Newly Identified Monoterpenoid-Based Small Molecule Able to Support the Survival of Primary Cultured Dopamine Neurons and Alleviate MPTP-Induced Toxicity In Vivo” (Molecules, 2022).
# Where “and” joins values, the source holds several entries; their conditions need not be identical. Equal entries are not always repeated.
# Columns and labels:
# [1] = test system: nigrostriatal dopamine system of MPTP-treated mice; assay: TH immunohistochemistry of striatum and substantia nigra in MPTP-treated mice; assay type: in vivo, C57Bl/6 male mice
# Description: The samples were collected 7 days after the last administration of PA96. Mice were anesthetized using terminal phenobarbital injection (50 mg/kg), perfused trans-cardially with PBS, and then 4% paraformaldehyde in PBS in accordance with. The brains were collected, treated, and embedded into paraffin blocks using the histological complex Microm (Fürth, Germany).
# To analyze the effect of PA96 in dopamine neurons in vivo, tyrosine hydroxylase immunohistochemistry was performed as described previously. The PFA-fixed and paraffin-embedded brains were cut into 5 µm thick sections (3 sections per slide), and every fifth slide was taken for TH staining. The sections were deparaffinized, followed by a citrate antigen retrieval procedure. Endogenous peroxidase was inactivated by 30 min incubation with 3% H2O2. The sections were blocked with 5% normal goat serum and then probed with monoclonal TH antibody (1:2000, Millipore Cat# MAB318 Lot# RRID:AB_2201528) overnight at +4 °C. The sections were washed, and biotinylated horse antimouse secondary antibody (1:200, Cat# BA-2001, Vector Laboratories, Burlingame, CA, USA) was applied for 1 h, followed by washing. […]
# The sections were scanned with an automated scanner (3DHistech, Budapest, Hungary), and the images were converted to 16-bit grayscale. […] The integrated optical densities in images were measured in ImageJ (NIH) and divided by area in pixels.
# CD-1 female mice = assay: Maximum tolerated dose and LD50 (acute oral toxicity); assay type: in vivo
# Description: (§1) Healthy animals were randomly divided into groups of four males or four females each. After a 3–4 h starvation, animals were administered 100, 150, 200, or 500 mg/kg PA96 solution (prepared by dissolution in saline containing 0.5% Tween 80) or the vehicle […]. Food was provided for approximately 1–2 h after administration. All mice were continuously monitored for changes in weight, breathing, ptosis, gait disturbance, tremor, and mortality 1 h after administration of PA96 and every 6 h after that. The day of dosing was designated as day 0, and animals were observed until day 14. Each mouse was weighed on days 0, 1, 3, 7, and 14.
# (§2) The arithmetic method of Kerber was used to determine the lethal dose fifty (LD50) that killed 50% of studied animals with PA96.
# (§3) The LD50 value was determined according to the following equation [24]:LD50 = LD100 − ∑ (z × d)/m(1) where LD50—dose capable of killing 50% of animals; LD100—dose capable of killing 100% of animals; z—half the sum of the number of animals in the experiments with the test of two following doses; d—the difference between two successive doses of administrative PA96; m—total number of animals in each group.
# [2] = as above; assay type: in vivo; details: female, CD-1, mouse, in vivo, po
# Description: as §1, §2, §3
# [3] = test system: naïve primary midbrain dopamine neurons; assay: Survival of naïve cultured dopamine neurons (TH-positive cell count); assay type: cell-based, mouse
# Description: We developed a compound library containing 20 diol derivatives and screened them on cultured primary DA neurons (Supplementary Materials, Table S1). Compounds were taken at a dose of 0.1 and 1 μM (based on effective doses for the epoxydiol). Based on the screening results, we selected four compounds and tested them in a naïve and MPP^+-treated (1-methyl-4-phenylpyridinium (MPP^+), the neurotoxic metabolite of MPTP) DA culture at 1, 10, and 100 nM to select the compound with the lowest effective dose.
# The survival of cultured mouse DA neurons was assessed as described before. Briefly, naïve or MPP^+ (dopaminergic selective neurotoxin)-challenged embryonic midbrain neurons were cultured in the presence or absence of a diol-like compound. The number of survived DA neurons was estimated after immunocytochemical staining with antibodies recognizing the key enzyme of dopamine synthesis—tyrosine hydroxylase.
# naïve C57Bl/6 mice = assay: Open field test in naïve mice; assay type: in vivo, C57Bl/6 male mice; details: 1, 10, 20 mg/kg once per os, 1 h after dosing
# Description: The studied agent in a dose of 1 mg/kg, 10 mg/kg, and 20 mg/kg or saline was administered once per os in a water-Tween 80 solution to 8 mice per group of C57Bl/6 mice. The main markers of the locomotor activity movement distance (cm) and duration of locomotor activity (s) were registered with the open field test performed for 2 min using Tru Scan (USA), 1 h after the administration of the studied agent.
# MPTP-treated mice [4] = assay: Open field test in the acute MPTP mouse model of PD; assay type: in vivo
# Description: MPTP was injected intraperitoneally into mice of C57Bl/6 line every 2 h in 8 h period in one day in a dose of 20 mg/kg for a total of four doses as described before, and one additional dose of MPTP was injected on the 7th day. The studied compound PA96 was dissolved in saline containing 0.5% Tween 80 just before use. PA96 in a dose of 1 and 10 mg/kg or VEH was administrated per os 24 h after the last injection of MPTP. Then, PA96 or VEH was injected for 14 days in a 5-day-per-week regime for a total of […].
# The effectiveness of the studied medications was evaluated according to their ability to reduce the symptoms of hypokinesia induced by MPTP on days 1, 7, and 14 of the experiment. Hypokinesia caused by neurotoxin administration was evaluated with the “open field” test performed for 2 min using Tru Scan (U.S.) 2 h after the administration of the studied compound, registering the main markers of the locomotor and exploratory activities: time of locomotor activity (s) and movement distance (cm).
# MPTP-treated mice [5] = assay: Coat hanger test in the acute MPTP mouse model of PD; assay type: in vivo, C57Bl/6 male mice
smiles,measurement,setting,value
"C=C(C)[C@@H]1CC=C(C)[C@@H](Sc2nc[nH]n2)[C@@H]1O [PA96, (1R,2R,6S)-2-(1H-1,2,4-triazol-3-ylthio)-3-methyl-6-(prop-1-en-2-yl)cyclohex-3-enol]",increase of the number of TH-positive neurons in SN,"[1]; 1 mg/kg, compared to MPTP-treated mice",37%
same,density of TH-positive fibers in the striatum (loss induced by MPTP),[1]; 1 and 10 mg/kg,not alleviated
same,MTD relative to the effective dose,"CD-1 female mice; female, CD-1, mouse, in vivo, 14 days",100 fold
same,"dose at which abnormal clinical signs were observed (piloerection, decreased motor activity, ptosis, gait disturbance)","CD-1 female mice; female, CD-1, mouse, in vivo, po, 14 days",≥ 150 mg/kg
same,hazard category,"CD-1 female mice; mouse, in vivo",Category III (slightly hazardous)
same,therapeutic dose lower than LD50,CD-1 female mice; therapeutic dose vs LD50,at least 100 times
same,LD50 at 14 days,[2],234 mg/kg
same,MTD at 14 days,[2],100 mg/kg
same,potency relative to epoxydiol in the survival assay,[3]; PA96 vs epoxydiol,up to 100 times
same,effective concentration in survival assay for DA neurons,[3]; cultured DA neurons,1 nM and 1−10 nM
same,cytotoxicity in in vitro experiments,[3]; naive neurons and with MPP+,neither cytotoxic effect in naive neurons nor increased cytotoxicity
same,number of TH-positive neurons greater than in vehicle-treated wells,"[3]; naïve neurons, 1 nM, p = 0.04",40%
same,"locomotor activity of naive animals (movement distance, duration)",naïve C57Bl/6 mice,did not activate
same,tolerability of repeated dosing,MPTP-treated mice [4]; 1 mg/kg and 10 mg/kg administered for 14 days,well tolerated
same,duration of locomotor activity in open field,"MPTP-treated mice [4]; MPTP-treated mice, 1 mg/kg, 24 h time point, p = 0.1328 vs VEH",on VEH level
same,movement distance in open field,"MPTP-treated mice [4]; MPTP-treated mice, 1 and 10 mg/kg per os",did not influence
same,antiparkinsonian activity in vivo (effective dose),"MPTP-treated mice [5]; MPTP mouse model, per os",1 mg/kg
same,coat hanger score,"MPTP-treated mice [5]; MPTP-treated mice, 1 mg/kg, 60 s time point, MPTP 3.6 ± 1.0, p = 0.0324",6.7 ± 0.2
same,increase of movement time in coat hanger test,"MPTP-treated mice [5]; MPTP-treated mice, 1 mg/kg, vs MPTP",40%
same,coat hanger score,"MPTP-treated mice [5]; MPTP-treated mice, 10 mg/kg, p = 0.0622",trend toward increasing the score
